What is called EC50 is the concentration at which the effect is half-maximal.

Structures can show the parent of a compound that is named as a salt.

T1 sequence (Q14416 19-872): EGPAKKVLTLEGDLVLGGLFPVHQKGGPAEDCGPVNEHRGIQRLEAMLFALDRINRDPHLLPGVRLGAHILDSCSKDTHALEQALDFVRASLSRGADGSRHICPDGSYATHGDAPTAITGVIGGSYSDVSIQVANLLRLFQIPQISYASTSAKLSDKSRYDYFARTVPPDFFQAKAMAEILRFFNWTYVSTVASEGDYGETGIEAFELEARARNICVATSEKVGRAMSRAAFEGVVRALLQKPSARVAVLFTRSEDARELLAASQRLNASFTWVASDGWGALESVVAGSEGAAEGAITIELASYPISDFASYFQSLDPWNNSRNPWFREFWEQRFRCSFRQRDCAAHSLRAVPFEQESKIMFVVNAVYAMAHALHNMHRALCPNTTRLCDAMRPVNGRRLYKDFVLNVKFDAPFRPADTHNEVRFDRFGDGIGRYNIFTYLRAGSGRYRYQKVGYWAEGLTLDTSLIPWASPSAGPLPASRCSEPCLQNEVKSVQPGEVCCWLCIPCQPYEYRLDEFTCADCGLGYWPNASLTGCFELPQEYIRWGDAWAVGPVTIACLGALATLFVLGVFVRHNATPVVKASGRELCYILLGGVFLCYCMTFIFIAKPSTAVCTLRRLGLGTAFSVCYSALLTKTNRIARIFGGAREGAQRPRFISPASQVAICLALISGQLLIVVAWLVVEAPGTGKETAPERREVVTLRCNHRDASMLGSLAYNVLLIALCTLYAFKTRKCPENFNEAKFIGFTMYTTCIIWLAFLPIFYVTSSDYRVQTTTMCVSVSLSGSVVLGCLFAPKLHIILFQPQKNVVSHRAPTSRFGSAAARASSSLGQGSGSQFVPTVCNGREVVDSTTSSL

One experiment concerns the target T1, mGlu2 (Homo sapiens, UniProt Q14416).
Assay: not given
The note with it: agonist; cited from earlier work.
Regarding `N[C@@]1(C(=O)O)CO[C@H]2[C@H](C(=O)O)[C@H]21` [LY379268], the EC50 was 3 nM.

For a further experiment, the target named is T1, mGlu2. Kind of experiment: FLIPR intracellular Ca2+ assay, potentiation of glutamate at mGlu2 receptor in HEK293 cell clone. The note with it: potentiation of 1 μM glutamate, HEK293 cells expressing human mGlu2, rGLAST and Galpha16. It is filed as cell-based. More on the design: V5/His (named in the vector only); expressed in transfected cells; host or cells: HEK293. As to the method:
For the purpose of the present study, a cell line permanently expressing the human mGlu2 receptor, the rat glutamate transporter rGLAST and the alpha subunit of G16 was generated by transfection. Briefly, HEK293 cells were seeded in petri dishes (diameter 15 cm) at a density of 2×10^6 cells in DMEM with glutamax (Invitrogen, GIBCO #21885-025), 10% dialyzed Fetal Calf Serum (Invitrogen, Gibco #26400-044), and incubated at 37° C. over night. The following day cells were transfected with Lipofectamine (Invitrogen, Gibco #18324-012) as recommended by the manufacturer, using linearized pcDNA3.1 (V5/His)-hmGlu2 receptor (ScaI) and pcDNA3.1 Zeo-Ga16 IRES rGLAST (SspI). After transfection the cells were selected in DMEM Glutamax Medium (Invitrogen, GIBCO #21885-025), containing 10% dialyzed fetal calf serum (FCS; (Invitrogen, Gibco #26400-044), antibiotic/antimycotic, 800 μg/ml Geneticin (G418) and 250 μg/ml Zeozin. Single clones were isolated manually and further subcloned by serial dilution.
The function of the mGlu2 receptor was determined by evaluating intracellular Ca^2+ concentrations under standard conditions in a fluorometric imaging plate reader (FLIPR, Molecular Devices, Union City, Calif. 94587, USA) by measuring the response of the cells to a test compound. The FLIPR assay is a common functional assay to monitor native or recombinant Galphaq-coupled receptors, and native or recombinant receptors normally linked to other G-protein signalling cascades, which are coupled to calcium through co-expression of an alpha subunit of a promiscuous or chimeric G-protein. In the assay the increase of intracellular calcium is measured through a calcium-dependent fluorescent dye (e.g. Fluo-4 AM) in the FLIPR instrument.
For selection of a suitable cell clone and also the subsequent measurements of the selected clone, 4×10^4 cells/well were plated on poly-D-lysine coated Biocoat-plates multiwell 96 in DMEM Glutamax (GIBCO #21885-025)/10% dialyzed FCS over night. The following day, the medium was aspirated and exchanged for glutamate-free DMEM (Gibco #21969-035), without FCS or glutamine, containing 50 μg/ml gentamycin (Gibco #15750). Cells were again incubated over night. Before the measurement, cells were loaded with 2 μM Fluo-4 AM (Molecular Probes, F14201; stock solution 1 mM in DMSO) and 0.02% Pluronic F127 (Molecular Probes, P3000; stock solution 10% in DMSO) in DMEM medium (Gibco #21969-035) for 45 minutes at 37° C. in a final volume of 100 μl per well. Finally, the plates were washed in a BioTec cell washer with HBSS, containing 20 mM HEPES. The end-volume in each well was 100 μl. The plates were subsequently measured in a fluorometric imaging plate reader (FLIPR, Molecular Devices, Union City, Calif. 94587, USA).
The compounds of the present invention were tested in the above-described FLIPR assay using the selected cell clone. Increased intracellular calcium levels were quantified following addition of test compound (agonism), as well as following addition of a submaximal concentration of 1 micromolar (1 μM) glutamate (potentiation).
For the determination of the effect of the test compound by itself (agonism) or by increasing the response to a submaximal concentration (e.g. 1 μM) of glutamate (potentiation), the resulting signal is determined by subtraction of the background fluorescence from the maximal fluorescent peak height of the respective response. In the FLIPR instrument the compound is given to the cell and its fluorescence response quantified by the FLIPR instrument (agonism). The concentration at which the compound exerts half its maximal effect is named the ‘effective concentration 50’ or ‘EC50’. The maximal effect induced by the test substance is normalized to the maximal effect exerted by 100 μM glutamate (set at 100%).
Ten minutes after addition of the test compound to the plate, 1 μM glutamate is added. A potentiator enhances the response of the receptor to glutamate. […]
On to `CCCCN1Cc2cc(Nc3cncc(-c4ccccc4)c3)cc(Cl)c2C1=O` [Example 4, 2-butyl-7-chloro-5-[(5-phenylpyridin-3-yl)amino]-2,3-dihydro-1H-isoindol-1-one], for which the EC50 was 500 to 2000 nM.

For the compound `CCCCN1Cc2cc(Nc3cncc(N4CCNCC4)c3)ccc2C1=O` [Example 5, 2-butyl-5-{[5-(piperazin-1-yl)pyridin-3-yl]amino}-2,3-dihydro-1H-isoindol-1-one], the EC50 lay within 2000 to 10000 nM.

For `CCCCN1Cc2cc(Nc3cc(N4CCNCC4)cnc3Cl)ccc2C1=O` [Example 6, 2-butyl-5-{[2-chloro-5-(piperazin-1-yl)pyridin-3-yl]amino}-2,3-dihydro-1H-isoindol-1-one], the EC50 was 2000 to 10000 nM.

On to `CCCCN1Cc2cc(Nc3cncc(Cl)c3)ccc2C1=O` [Example 7, 2-butyl-5-[(5-chloropyridin-3-yl)amino]-2,3-dihydro-1H-isoindol-1-one], for which the 50% effective concentration (EC50) lay within 500 to 2000 nM.

Turning to `CCCCN1Cc2cc(Nc3cncc(N4CCOCC4)c3)ccc2C1=O` [Example 8, 2-butyl-5-{[5-(morpholin-4-yl)pyridin-3-yl]amino}-2,3-dihydro-1H-isoindol-1-one], the EC50 is less than 500 nM.

Turning to `CCCCN1Cc2cc(Nc3cc(N4CCN(C)CC4)cnc3Cl)ccc2C1=O` [Example 9, 2-butyl-5-{[2-chloro-5-(4-methylpiperazin-1-yl)pyridin-3-yl]amino}-2,3-dihydro-1H-isoindol-1-one], the 50% effective concentration (EC50) fell in the range of 500 to 2000 nM.

Turning to `CCCCN1Cc2cc(Nc3cncc(N4CCN(C)CC4)c3)ccc2C1=O` [Example 10, 2-butyl-5-{[5-(4-methylpiperazin-1-yl)pyridin-3-yl]amino}-2,3-dihydro-1H-isoindol-1-one], the EC50 was in the range of 2000 to 10000 nM.

As to `CCCCN1Cc2cc(Oc3cncc(-c4ccccc4)c3)ccc2C1=O` [Example 11, 2-butyl-5-[(5-phenylpyridin-3-yl)oxy]-2,3-dihydro-1H-isoindol-1-one], the EC50 was less than 500 nM.

With `CCCCN1Cc2c(Oc3cncc(-c4ccccc4)c3)cccc2C1=O` [Example 12, 2-butyl-4-[(5-phenylpyridin-3-yl)oxy]-2,3-dihydro-1H-isoindol-1-one trifluoroacetate], the EC50 was less than 500 nM.

As for `CCCCN1CCc2c(Oc3cncc(-c4ccccc4)c3)cccc2C1=O` [Example 13, 2-butyl-5-[(5-phenylpyridin-3-yl)oxy]-3,4-dihydroisoquinolin-1(2H)-one trifluoroacetate], the 50% effective concentration (EC50) is less than 500 nM.

Regarding `CCCCN1CCc2cc(Oc3cncc(-c4ccccc4)c3)ccc2C1=O` [Example 14, 2-butyl-6-[(5-phenylpyridin-3-yl)oxy]-3,4-dihydroisoquinolin-1(2H)-one trifluoroacetate], the EC50 is less than 500 nM.

As for `CCCCN1Cc2ccc(Oc3cncc(-c4ccccc4)c3)cc2C1=O` [Example 15, 2-butyl-6-[(5-phenylpyridin-3-yl)oxy]-2,3-dihydro-1H-isoindol-1-one trifluoroacetate], the EC50 fell in the range of 500 to 2000 nM.

Regarding `CCCCN1Cc2cc(Nc3cncc(-c4ccccc4)n3)ccc2C1=O` [Example 16, 2-butyl-5-(6-phenyl-pyrazin-2-ylamino)-2,3-dihydro-isoindol-1-one], the concentration giving a half-maximal response (EC50) is less than 500 nM.

Consider `CCCCN1Cc2cc(Nc3cnc4ccccc4c3)ccc2C1=O` [Example 17, 2-butyl-5-(quinolin-3-ylamino)-2,3-dihydro-1H-isoindol-1-one], for which the EC50 was 500 to 2000 nM.

`CCCCN1Cc2cc(Nc3cnc4ccccc4n3)ccc2C1=O` [Example 18, 2-butyl-5-(quinoxalin-2-ylamino)-2,3-dihydro-1H-isoindol-1-one]: the EC50 was in the range of 2000 to 10000 nM.

With `COCCN1Cc2cc(Nc3cncc(-c4ccccc4)c3)ccc2C1=O` [Example 19, 2-(2-methoxyethyl)-5-[(5-phenylpyridin-3-yl)amino]-2,3-dihydro-1H-isoindol-1-one], the half-maximal effective concentration (EC50) was 500 to 2000 nM.

With `CCCCN1Cc2cc(Nc3cccnc3Cl)ccc2C1=O` [Example 20, 2-butyl-5-[(2-chloropyridin-3-yl)amino]-2,3-dihydro-1H-isoindol-1-one], the EC50 was 2000 to 10000 nM.

For `CCCCN1CCc2c(Oc3cc(N4CCNCC4)cnc3Cl)cccc2C1=O` [Example 21, 2-butyl-5-{[2-chloro-5-(piperazin-1-yl)pyridin-3-yl]oxy}-3,4-dihydroisoquinolin-1(2H)-one], the EC50 lay within 500 to 2000 nM.

Take `CCCCN1CCc2c(Oc3cc(N4CCN(C)CC4)cnc3Cl)cccc2C1=O` [Example 22, 2-butyl-5-{[2-chloro-5-(4-methylpiperazin-1-yl)pyridin-3-yl]oxy}-3,4-dihydroisoquinolin-1(2H)-one]: the EC50 lay within 500 to 2000 nM.

For `CCCCN1Cc2cc(Cc3cncc(-c4ccccc4)c3)ccc2C1=O` [Example 23, 2-butyl-5-[(5-phenylpyridin-3-yl)methyl]-2,3-dihydro-1H-isoindol-1-one], the EC50 lay within 500 to 2000 nM.

Take `CCCCN1Cc2cc(-c3cncc(-c4ccccc4)c3)ccc2C1=O` [Example 24, 2-butyl-5-(5-phenylpyridin-3-yl)-2,3-dihydro-1H-isoindol-1-one]: the EC50 was 500 to 2000 nM.

Values taken from patent publication US8314120B2, “Small molecule potentiators of metabotropic glutamate receptors” (Abbott GmbH & Co. KG, priority 2010, dated 2012).
